Assay results as given in publication PMC6282443 (Journal of Enzyme Inhibition and Medicinal Chemistry, 2018).
Read-outs that look alike come from different tables or passages of the source.

Columns and labels:
Type in all cases: cell-based, human
HepG2 cells = test: MTT anti-proliferative assay, HepG2; settings: read-out: Anti-proliferative activity IC50, HepG2
A549 cells = test: cells; settings: read-out: Anti-proliferative activity IC50, A549
MCF-7 cells = test: MTT anti-proliferative assay, MCF-7; settings: read-out: Anti-proliferative activity IC50, MCF-7
H1975 cells = settings: H1975, MTT; for IC50: read-out: Anti-proliferative activity IC50, H1975, 72 h

IC50 (HepG2 cells; Homo sapiens, HepG2, 72 h) [µM] | IC50 (A549 cells; Homo sapiens, A549, 72 h) [µM] | IC50 (MCF-7 cells; Homo sapiens, MCF7, 72 h) [µM] | IC50 (HepG2 cells; HepG2, MTT, 72 h) [µM] | IC50 (A549 cells; A549, MTT, 72 h) [µM] | IC50 (MCF-7 cells; MCF-7, MTT, 72 h) [µM] | IC50 (H1975 cells) [µM] | Compound | inhibitory activity against H1975 cells (in words) (H1975 cells)
 |  |  | 17.4 ± 1.24 | 24.2 ± 1.24 | 24.2 ± 1.23 | 35.3 ± 2.35 | O=C(N/N=C/c1ccc(OCCN2CCCCC2)cc1)Nc1cc2c(Nc3ccc(F)c(Cl)c3)ncnc2cc1O[C@H]1CCOC1 [Compound 40, (S,E)-N-(4-((3-chloro-4-fluoropheny)amino)-7-((tetrahydrofuran-3-yl)oxy)quinazolin-6-yl)-2-(4-(2-(piperidin-1-yl)ethoxy)benzylidene)hydrazine-1-carboxamide] | 
 |  |  | 40.2 ± 3.04 | 37.8 ± 2.54 | 28.8 ± 1.29 | 25.5 ± 1.44 | O=C(N/N=C/c1ccc(OCCN2CCOCC2)cc1)Nc1cc2c(Nc3ccc(F)c(Cl)c3)ncnc2cc1O[C@H]1CCOC1 [Compound 41, (S,E)-N-(4-((3-chloro-4-fluoropheny)amino)-7-((tetrahydrofuran-3-yl)oxy)quinazolin-6-yl)-2-(4-(2-morpholinoethoxy)benzylidene)hydrazine-1-carboxamide] | 
 |  |  | 9.58 ± 0.94 | 4.01 ± 0.56 | 6.85 ± 0.65 | 3.1 ± 0.49 | COc1cc2ncnc(Nc3ccc(F)c(Cl)c3)c2cc1NC(=O)N/N=C/c1ccc(OCCCN2CCCCC2)cc1 [Compound 46, (E)-N-(4-((3-chloro-4-fluoropheny)amino)-7-methoxyquinazolin-6-yl)-2-(4-(3-(piperidin-1-yl)propoxy)benzylidene)hydrazine-1-carboxamide] | 
 |  |  | 28.4 ± 1.78 | 34.8 ± 1.26 | 27.5 ± 1.29 | 41.2 ± 2.07 | COc1cc2ncnc(Nc3ccc(F)c(Cl)c3)c2cc1NC(=O)N/N=C/c1ccc(OCCCN2CCOCC2)cc1 [Compound 47, (E)-N-(4-((3-chloro-4-fluoropheny)amino)-7-methoxyquinazolin-6-yl)-2-(4-(3-morpholinopropoxy)benzylidene)hydrazine-1-carboxamide] | 
 |  |  | 14.5 ± 1.27 | 2.96 ± 0.36 | 12.2 ± 0.89 | 10.2 ± 1.26 | (E)-N-(4-((3-chloro-4-fluoropheny)amino)-7-methoxyquinazolin-6-yl)-2-(4-(3-(4-methylpiperazin-1-yl)propoxy) benzylidene)hydrazine-1-carboxamide [Compound 48] | moderate inhibitory activity
 |  |  | > 100 | 43.1 ± 3.34 | > 100 | > 100 | (E)-N-(4-((3-chloro-4-fluoropheny)amino)-7-methoxyquinazolin-6-yl)-2-(4-(3-(dimethylamino)propoxy)benzyl idene)hydrazine-1-carboxamide [Compound 43] | 
 |  |  | 24.5 ± 1.27 | 23.2 ± 1.47 | 16.9 ± 1.34 | 38.2 ± 1.23 | (E)-N-(4-((3-chloro-4-fluoropheny)amino)-7-methoxyquinazolin-6-yl)-2-(4-(3-(pyrrolidin-1-yl)propoxy)benzyli dene)hydrazine-1-carboxamide [Compound 45] | 
 |  |  | 13.4 ± 0.54 | 2.52 ± 0.54 | 10.8 ± 0.68 | 11.2 ± 1.34 | (S,E)-N-(4-((3-chloro-4-fluoropheny)amino)-7-((tetrahydrofuran-3-yl)oxy)quinazolin-6-yl)-2-(4-(2-(4-methylpi perazin-1-yl)ethoxy)benzylidene)hydrazine-1-carboxamide [Compound 42] | moderate inhibitory activity

Continued, compound first:

Compound | IC50 (HepG2 cells; Homo sapiens, HepG2, 72 h) [µM] | IC50 (A549 cells; Homo sapiens, A549, 72 h) [µM] | IC50 (MCF-7 cells; Homo sapiens, MCF7, 72 h) [µM] | IC50 (HepG2 cells; HepG2, MTT, 72 h) [µM] | IC50 (A549 cells; A549, MTT, 72 h) [µM] | IC50 (MCF-7 cells; MCF-7, MTT, 72 h) [µM] | IC50 (H1975 cells) [µM] | inhibitory activity against H1975 cells (in words) (H1975 cells)
COc1cc2ncnc(Nc3ccc(F)c(Cl)c3)c2cc1NC(=O)N/N=C/c1ccc(CN(C)C)cc1 [Compound 19, (E)-N-(4-((3-chloro-4-fluorophenyl)amino)-7-methoxyquinazolin-6-yl)-2-(4-((dimethylamino)methyl)benzylidene)hydrazine-1-carboxamide] | 9.89 ± 0.96 | 7.99 ± 0.82 | 3.8 ± 0.22 |  |  |  |  | moderate inhibitory activity
CCN(CC)Cc1ccc(/C=N/NC(=O)Nc2cc3c(Nc4ccc(F)c(Cl)c4)ncnc3cc2OC)cc1 [Compound 20, (E)-N-(4-((3-chloro-4-fluorophenyl)amino)-7-methoxyquinazolin-6-yl)-2-(4-((diethylamino)methyl)benzylidene)hydrazine-1-carboxamide] | 9.49 ± 0.47 | 8.71 ± 0.54 | 4.14 ± 0.57 |  |  |  |  | poorer cellular activity
COc1cc2ncnc(Nc3ccc(F)c(Cl)c3)c2cc1NC(=O)N/N=C/c1ccc(CN2CCCC2)cc1 [Compound 21, (E)-N-(4-((3-chloro-4-fluorophenyl)amino)-7-methoxyquinazolin-6-yl)-2-(4-(pyrrolidin-1-ylmethyl)benzylidene)hydrazine-1-carboxamide] | 21.3 ± 1.47 | 17.8 ± 1.22 | 8.9 ± 0.48 |  |  |  |  | moderate inhibitory activity
COc1cc2ncnc(Nc3ccc(F)c(Cl)c3)c2cc1NC(=O)N/N=C/c1ccc(CN2CCN(C)CC2)cc1 [Compound 24, (E)-N-(4-((3-chloro-4-fluorophenyl)amino)-7-methoxyquinazolin-6-yl)-2-(4-((4-methylpiperazin-1-yl)methyl)benzylidene)hydrazine-1-carboxamide] | 2.86 ± 0.13 | 4.32 ± 0.61 | 3.12 ± 0.38 |  |  |  |  | moderate inhibitory activity
CN(C)Cc1ccc(/C=N/NC(=O)Nc2cc3c(Nc4ccc(F)c(Cl)c4)ncnc3cc2O[C@H]2CCOC2)cc1 [Compound 25, (S,E)-N-(4-((3-chloro-4-fluorophenyl)amino)-7-((tetrahydrofuran-3-yl)oxy)quinazolin-6-yl)-2-(4-((dimethylamino)methyl)benzylidene)hydrazine-1-carboxamide] | 3.76 ± 0.21 | 4.13 ± 0.54 | 4.41 ± 0.28 |  |  |  |  | poorer cellular activity
COc1cc2ncnc(Nc3ccc(F)c(Cl)c3)c2cc1NC(=O)N/N=C/c1ccc(OCCN(C)C)cc1 [Compound 31, (E)-N-(4-((3-chloro-4-fluoropheny)amino)-7-methoxyquinazolin-6-yl)-2-(4-(2-(dimethylamino)ethoxy)benzylidene)hydrazine-1-carboxamide] |  |  |  | 36.3 ± 2.57 | 40.1 ± 4.03 | 37.2 ± 2.89 | 45.3 ± 3.34 | 
CCN(CC)CCOc1ccc(/C=N/NC(=O)Nc2cc3c(Nc4ccc(F)c(Cl)c4)ncnc3cc2OC)cc1 [Compound 32, (E)-N-(4-((3-chloro-4-fluoropheny)amino)-7-methoxyquinazolin-6-yl)-2-(4-(2-(diethylamino)ethoxy)benzylidene)hydrazine-1-carboxamide] |  |  |  | 13.2 ± 1.03 | 8.62 ± 1.13 | 12.5 ± 1.24 | 32.6 ± 3.45 | poorer cellular activity
COc1cc2ncnc(Nc3ccc(F)c(Cl)c3)c2cc1NC(=O)N/N=C/c1ccc(OCCN2CCCCC2)cc1 [Compound 34, (E)-N-(4-((3-chloro-4-fluoropheny)amino)-7-methoxyquinazolin-6-yl)-2-(4-(2-(piperidin-1-yl)ethoxy)benzylidene)hydrazine-1-carboxamide] |  |  |  | 12.7 ± 1.25 | 10.8 ± 1.43 | 9.21 ± 1.16 | 61.6 ± 5.67 | poorer cellular activity
COc1cc2ncnc(Nc3ccc(Cl)c(F)c3)c2cc1NC(=O)N/N=C/c1ccc(OCCN2CCOCC2)cc1 [Compound 35, (E)-N-(4-((4-chloro-3-fluorophenyl)amino)-7-methoxyquinazolin-6-yl)-2-(4-(2-morpholinoethoxy)benzylidene) hydrazine-1-carboxamide] |  |  |  | 16.5 ± 1.42 | 19.5 ± 1.35 | 21.8 ± 1.34 | 25.2 ± 1.35 | 
COc1cc2ncnc(Nc3ccc(F)c(Cl)c3)c2cc1NC(=O)N/N=C/c1ccc(OCCN2CCN(C)CC2)cc1 [Compound 36, (E)-N-(4-((3-chloro-4-fluoropheny)amino)-7-methoxyquinazolin-6-yl)-2-(4-(2-(4-methylpiperazin-1-yl)ethoxy)benzylidene)hydrazine-1-carboxamide] |  |  |  | 10.2 ± 1.09 | 11.4 ± 1.07 | 6.2 ± 0.81 | 24.7 ± 1.86 | poorer cellular activity
CN(C)CCOc1ccc(/C=N/NC(=O)Nc2cc3c(Nc4ccc(F)c(Cl)c4)ncnc3cc2O[C@H]2CCOC2)cc1 [Compound 37, (S,E)-N-(4-((3-chloro-4-fluoropheny)amino)-7-((tetrahydrofuran-3-yl)oxy)quinazolin-6-yl)-2-(4-(2-(dimethylamino)ethoxy)benzylidene)hydrazine-1-carboxamide] |  |  |  | 8.2 ± 0.81 | 14.7 ± 1.35 | 11.7 ± 1.34 | 10.2 ± 1.12 | moderate inhibitory activity
O=C(N/N=C/c1ccc(OCCN2CCCC2)cc1)Nc1cc2c(Nc3ccc(F)c(Cl)c3)ncnc2cc1O[C@H]1CCOC1 [Compound 39, (S,E)-N-(4-((3-chloro-4-fluoropheny)amino)-7-((tetrahydrofuran-3-yl)oxy)quinazolin-6-yl)-2-(4-(2-(pyrrolidin-1-yl)ethoxy)benzylidene)hydrazine-1-carboxamide] |  |  |  | 67.3 ± 6.24 | 63.9 ± 5.35 | 64.8 ± 5.35 | > 100 | 
(E)-N-(4-((3-chloro-4-fluoropheny)amino)-7-methoxyquinazolin-6-yl)-2-(4-(2-(pyrrolidin-1-yl)ethoxy)benzylid ene)hydrazine-1-carboxamide [Compound 33] |  |  |  | 46.7 ± 4.46 | 36.4 ± 2.78 | 44.2 ± 3.75 | 49.3 ± 4.68 | 
(S,E)-N-(4-((3-chloro-4-fluoropheny)amino)-7-((tetrahydrofuran-3-yl)oxy)quinazolin-6-yl)-2-(4-(2-(diethylamin o)ethoxy)benzylidene)hydrazine-1-carboxamide [Compound 38] |  |  |  | 1.91 ± 0.34 | 3.01 ± 0.54 | 1.99 ± 0.68 | > 100 | poorer cellular activity
